Results from PubChem BioAssay (NCI).
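Following 48 hours of exposure in 96-well plates, responses at five concentrations were used to interpolate endpoints linearly. The concentration for full growth arrest is given as TGI.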

Tests used:
Assay in all cases: growth of human tumour cells (NCI), 48 h
KM20L2 colon = tested on: KM20L2 colon
K-562 leukemia = tested on: K-562 leukemia
OVCAR-8 ovarian = tested on: OVCAR-8 ovarian
SNB-75 CNS = tested on: SNB-75 CNS
SW-620 colon = tested on: SW-620 colon
RXF 393 renal = tested on: RXF 393 renal
SK-MEL-2 melanoma = tested on: SK-MEL-2 melanoma
HCT-116 colon = tested on: HCT-116 colon
SF-268 CNS = tested on: SF-268 CNS
SNB-19 CNS = tested on: SNB-19 CNS
HOP-92 NSCLC = tested on: HOP-92 NSCLC
HT29 colon = tested on: HT29 colon
HOP-62 NSCLC = tested on: HOP-62 NSCLC
OVCAR-4 ovarian = tested on: OVCAR-4 ovarian
DLD-1 colon = tested on: DLD-1 colon
LOX IMVI melanoma = tested on: LOX IMVI melanoma
SF-539 CNS = tested on: SF-539 CNS
COLO 205 colon = tested on: COLO 205 colon
A549 NSCLC = tested on: A549 NSCLC
HL-60(TB) leukemia = tested on: HL-60(TB) leukemia
NCI-H226 lung = tested on: NCI-H226 lung
XF 498 CNS = tested on: XF 498 CNS
HCT-15 colon = tested on: HCT-15 colon
M19-MEL melanoma = tested on: M19-MEL melanoma
NCI-H23 lung = tested on: NCI-H23 lung
ACHN renal = tested on: ACHN renal
UACC-257 melanoma = tested on: UACC-257 melanoma
CAKI-1 renal = tested on: CAKI-1 renal
M14 melanoma = tested on: M14 melanoma
OVCAR-3 ovarian = tested on: OVCAR-3 ovarian
UACC-62 melanoma = tested on: UACC-62 melanoma
OVCAR-5 ovarian = tested on: OVCAR-5 ovarian
A498 renal = tested on: A498 renal
SF-295 CNS = tested on: SF-295 CNS
SR leukemia = tested on: SR leukemia
RPMI-8226 leukemia = tested on: RPMI-8226 leukemia
LXFL 529 NSCLC = tested on: LXFL 529 NSCLC
IGROV1 ovarian = tested on: IGROV1 ovarian
TK-10 renal = tested on: TK-10 renal
DMS 114 small cell lung = tested on: DMS 114 small cell lung
NCI-H522 lung = tested on: NCI-H522 lung
HCC-2998 colon = tested on: HCC-2998 colon
EKVX NSCLC = tested on: EKVX NSCLC
SK-OV-3 ovarian = tested on: SK-OV-3 ovarian
786-0 renal = tested on: 786-0 renal
SK-MEL-28 melanoma = tested on: SK-MEL-28 melanoma
MALME-3M melanoma = tested on: MALME-3M melanoma
CCRF-CEM leukemia = tested on: CCRF-CEM leukemia
SN12C renal = tested on: SN12C renal
RXF-631 renal = tested on: RXF-631 renal
HOP-18 NSCLC = tested on: HOP-18 NSCLC
U251 CNS = tested on: U251 CNS
MOLT-4 leukemia = tested on: MOLT-4 leukemia
SK-MEL-5 melanoma = tested on: SK-MEL-5 melanoma
SNB-78 CNS = tested on: SNB-78 CNS
DMS 273 small cell lung = tested on: DMS 273 small cell lung
KM12 colon = tested on: KM12 colon
NCI-H460 lung = tested on: NCI-H460 lung
UO-31 renal = tested on: UO-31 renal

Measured: TGI

C/C(=N\N=C(N)N)C(CN1CCCCC1)C(c1ccccc1)c1c(O)c2ccccc2oc1=O (configuration not stated)
> 100 µM: KM20L2 colon | K-562 leukemia | OVCAR-8 ovarian | SNB-75 CNS | SW-620 colon | RXF 393 renal | SK-MEL-2 melanoma | HCT-116 colon | SF-268 CNS | SNB-19 CNS | HOP-92 NSCLC | HT29 colon | HOP-62 NSCLC | OVCAR-4 ovarian | DLD-1 colon | LOX IMVI melanoma | SF-539 CNS | COLO 205 colon | A549 NSCLC | HL-60(TB) leukemia | NCI-H226 lung | XF 498 CNS | HCT-15 colon | M19-MEL melanoma | NCI-H23 lung | ACHN renal | UACC-257 melanoma | CAKI-1 renal | M14 melanoma | OVCAR-3 ovarian | UACC-62 melanoma | OVCAR-5 ovarian | A498 renal | SF-295 CNS | SR leukemia | RPMI-8226 leukemia | LXFL 529 NSCLC | IGROV1 ovarian | TK-10 renal | DMS 114 small cell lung | NCI-H522 lung | HCC-2998 colon | EKVX NSCLC | SK-OV-3 ovarian | 786-0 renal | SK-MEL-28 melanoma | MALME-3M melanoma | CCRF-CEM leukemia | SN12C renal | RXF-631 renal

COc1ccc(Cc2c3cc(O)c(=O)cc-3ccn2C)cc1
> 81 µM: MOLT-4 leukemia
> 88.1 µM: MALME-3M melanoma
82.4 µM: HOP-62 NSCLC
73.7 µM: RXF 393 renal
34.5 µM: LOX IMVI melanoma
62.4 µM: DMS 114 small cell lung
> 100 µM: KM20L2 colon | K-562 leukemia | HOP-18 NSCLC | OVCAR-8 ovarian | SNB-75 CNS | SW-620 colon | SK-MEL-2 melanoma | HCT-116 colon | U251 CNS | SNB-19 CNS | HOP-92 NSCLC | HT29 colon | OVCAR-4 ovarian | DLD-1 colon | COLO 205 colon | A549 NSCLC | HL-60(TB) leukemia | XF 498 CNS | NCI-H23 lung | ACHN renal | CAKI-1 renal | SNB-78 CNS | OVCAR-3 ovarian | DMS 273 small cell lung | OVCAR-5 ovarian | A498 renal | SF-295 CNS | RPMI-8226 leukemia | IGROV1 ovarian | KM12 colon | TK-10 renal | NCI-H522 lung | HCC-2998 colon | NCI-H460 lung | EKVX NSCLC | SK-OV-3 ovarian | SN12C renal | RXF-631 renal
30.5 µM: M14 melanoma
98.2 µM: SF-268 CNS
> 76.3 µM: CCRF-CEM leukemia
> 92.9 µM: SK-MEL-28 melanoma
> 73 µM: UO-31 renal
70.4 µM: SF-539 CNS
83.3 µM: NCI-H226 lung
37 µM: SR leukemia
> 89.8 µM: UACC-257 melanoma
> 76.1 µM: SK-MEL-5 melanoma
61 µM: UACC-62 melanoma
> 66.8 µM: 786-0 renal
75 µM: M19-MEL melanoma
